Experimental data from PubChem BioAssay AID328 (DTP/NCI, 2004).
Where “and” joins values, the source holds several entries; their conditions need not be identical. Identical values can stand only once. Inconclusive results and toxic doses are left out.

Tested on: BDF1 mice, P388 leukemia ip, median survival T/C
Assay: NCI In Vivo Anticancer Drug Screen. Data for tumor model P388 Leukemia (intraperitoneal) in B6D2F1 (BDF1) mice
Settings: endpoint: median survival time, higher = longer survival
How it was run: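 Reported as T/C, where T is the survival measurement in dosed animals and C the same measurement in vehicle controls.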

[1] = dose: 50.0 mg/kg/injection, schedule: Q04DX003 (ip), vehicle: saline
[2] = dose: 100.0 mg/kg/injection, schedule: Q04DX003 (ip), vehicle: saline
[3] = dose: 50.0 mg/kg/injection, schedule: Q01DX009 (ip), vehicle: other
[4] = dose: 100.0 mg/kg/injection, schedule: Q01DX009 (ip), vehicle: other
[5] = dose: 200.0 mg/kg/injection, schedule: Q01DX009 (ip), vehicle: other
[6] = dose: 400.0 mg/kg/injection, schedule: Q01DX009 (ip), vehicle: other
[7] = dose: 100.0 mg/kg/injection, schedule: Q04DX003 (ip), vehicle: saline with Tween-80
[8] = dose: 200.0 mg/kg/injection, schedule: Q04DX003 (ip), vehicle: saline with Tween-80
[9] = dose: 400.0 mg/kg/injection, schedule: Q04DX003 (ip), vehicle: saline with Tween-80
[10] = dose: 100.0 mg/kg/injection, schedule: Q01DX009 (ip), vehicle: saline with Tween-80
[11] = dose: 200.0 mg/kg/injection, schedule: Q01DX009 (ip), vehicle: saline with Tween-80
[12] = dose: 400.0 mg/kg/injection, schedule: Q01DX009 (ip), vehicle: saline with Tween-80
[13] = dose: 200.0 mg/kg/injection, schedule: Q04DX003 (ip), vehicle: saline
[14] = dose: 400.0 mg/kg/injection, schedule: Q04DX003 (ip), vehicle: saline
[15] = dose: 50.0 mg/kg/injection, schedule: Q01DX009 (ip), vehicle: saline with Tween-80

CC[n+]1ccc(Nc2ccc(NC(=O)c3ccc(C(=O)Nc4ccc(Nc5cc[n+](CC)c(N)n5)cc4)cc3)cc2)nc1N was tested, and the T/C (dose: 0.12 mg/kg/injection, schedule: Q01DX009 (ip), vehicle: saline) was 150 % of control, the T/C (dose: 0.25 mg/kg/injection, schedule: Q01DX009 (ip), vehicle: saline) was 150 % of control and the T/C (dose: 0.25 mg/kg/injection, schedule: Q04DX003 (ip), vehicle: Klucel (hydroxypropylcellulose) (HPC)) was 100 % of control. The T/C (dose: 0.5 mg/kg/injection, schedule: Q01DX009 (ip), vehicle: saline) was 155 % of control, the T/C (dose: 0.5 mg/kg/injection, schedule: Q04DX003 (ip), vehicle: Klucel (hydroxypropylcellulose) (HPC)) was 95 % of control and the T/C (dose: 1.0 mg/kg/injection, schedule: Q04DX003 (ip), vehicle: Klucel (hydroxypropylcellulose) (HPC)) was 109 % of control. For the same compound, the T/C (dose: 1.65 mg/kg/injection, schedule: Q01DX009 (ip), vehicle: saline) was 160 % of control, the T/C (dose: 2.5 mg/kg/injection, schedule: Q01DX009 (ip), vehicle: saline) was 175 % of control and 177 % of control and the T/C (dose: 3.75 mg/kg/injection, schedule: Q01DX009 (ip), vehicle: saline) was 170 % of control. For the same compound, the T/C (dose: 5.0 mg/kg/injection, schedule: Q04DX003 (ip), vehicle: saline) was 177 % of control, the T/C (dose: 10.0 mg/kg/injection, schedule: Q01DX009 (ip), vehicle: saline) was 190 % of control and the T/C (dose: 20.0 mg/kg/injection, schedule: Q01DX009 (ip), vehicle: saline) was 300 % of control. For the same compound, the T/C (dose: 30.0 mg/kg/injection, schedule: Q04DX003 (ip), vehicle: saline) was 195 % of control, the T/C (dose: 45.0 mg/kg/injection, schedule: Q04DX003 (ip), vehicle: saline) was 200 % of control and the T/C [1] was 200 % of control. For the same compound, the T/C (dose: 65.0 mg/kg/injection, schedule: Q04DX003 (ip), vehicle: saline) was 216 % of control, the T/C (dose: 80.0 mg/kg/injection, schedule: Q01DX009 (ip), vehicle: saline) was 109 % of control and the T/C [2] was 250 % of control and 263 % of control. The T/C (dose: 150.0 mg/kg/injection, schedule: Q04DX003 (ip), vehicle: saline) was 104 % of control, the T/C (dose: 2.5 micrograms/kg/injection, schedule: Q01DX009 (ip), vehicle: saline) was 90 % of control and the T/C (dose: 5.0 micrograms/kg/injection, schedule: Q01DX009 (ip), vehicle: saline) was 95 % of control. The T/C (dose: 10.0 micrograms/kg/injection, schedule: Q01DX009 (ip), vehicle: saline) was 100 % of control.

With Cc1cc(O)c2c(c1)OC1(C)CCC3C(C)(C)CCCC34COC2C14 (stereo unspecified) the T/C [3] was 109 % of control, the T/C [4] was 114 % of control and the T/C [5] was 92 % of control and 110 % of control. The T/C [6] was 101 % of control.

CCC(=O)c1ccc(OCC(O)CN2CCN(c3ccccc3OC)CC2)cc1 (stereo unspecified) was tested, and the T/C [7] was 104 % of control, the T/C [8] was 104 % of control and the T/C [9] was 119 % of control.

CC1=CC(=O)c2c(O)ccc(O)c2C1=O was tested, and the T/C (dose: 1.25 mg/kg/injection, schedule: Q01DX009 (ip), vehicle: alcohol) was 114 % of control and the T/C (dose: 2.5 mg/kg/injection, schedule: Q01DX009 (ip), vehicle: alcohol) was 122 % of control.

In the case of S=P(N1CCCC1)(N1CC1)N1CC1, the T/C (dose: 5.0 mg/kg/injection, schedule: Q01DX009 (ip), vehicle: saline with Tween-80) is reported as 158 % of control and the T/C (dose: 10.0 mg/kg/injection, schedule: Q01DX009 (ip), vehicle: saline with Tween-80) is reported as 104 % of control.

With Cc1ccc(N2CCNCC2)cc1 the T/C (dose: 6.25 mg/kg/injection, schedule: Q04DX003 (ip), vehicle: saline sonified) was 95 % of control, the T/C (dose: 12.5 mg/kg/injection, schedule: Q04DX003 (ip), vehicle: saline sonified) was 100 % of control and the T/C (dose: 25.0 mg/kg/injection, schedule: Q04DX003 (ip), vehicle: saline sonified) was 100 % of control.

With CC(=O)Oc1ccc(C2C3=C(COC3=O)CC3=C2C(=O)OC3)cc1 the T/C (dose: 100.0 mg/kg/injection, schedule: Q01DX007 (ip), vehicle: saline with Tween-80) was 95 % of control, the T/C [7] was 100 % of control and the T/C (dose: 200.0 mg/kg/injection, schedule: Q01DX007 (ip), vehicle: saline with Tween-80) was 90 % of control. For the same compound, the T/C [8] was 110 % of control, the T/C (dose: 400.0 mg/kg/injection, schedule: Q01DX007 (ip), vehicle: saline with Tween-80) was 100 % of control and the T/C [9] was 100 % of control.

For COc1cccc(NC(=O)CCC(=O)O)c1, the T/C [10] was 104 % of control, the T/C [11] was 100 % of control and the T/C [12] was 100 % of control.

With CCOC(=O)/C(C#N)=N\O the T/C (dose: 25.0 mg/kg/injection, schedule: Q01DX009 (ip), vehicle: saline) was 100 % of control, the T/C (dose: 25.0 mg/kg/injection, schedule: Q04DX003 (ip), vehicle: saline) was 113 % of control and the T/C (dose: 50.0 mg/kg/injection, schedule: Q01DX009 (ip), vehicle: saline) was 120 % of control. The T/C [1] was 104 % of control and the T/C [2] was 95 % of control.

In the case of NC(=O)NO.NC(=O)NO.[Cl][Ni][Cl], the T/C (dose: 3.12 mg/kg/injection, schedule: Q01DX009 (ip), vehicle: saline) is reported as 92 % of control.

In the case of ClC1=C(Cl)[C@@]2(Cl)[C@H]3[C@H]4C[C@H]([C@@H]5O[C@H]45)[C@H]3[C@@]1(Cl)C2(Cl)Cl, the T/C (dose: 3.12 mg/kg/injection, schedule: Q01DX009 (ip), vehicle: Klucel (hydroxypropylcellulose) (HPC)) is reported as 91 % of control and the T/C (dose: 6.25 mg/kg/injection, schedule: Q01DX009 (ip), vehicle: Klucel (hydroxypropylcellulose) (HPC)) is reported as 87 % of control.

In the case of Cc1cc(=O)[nH]c(N(CCO)CCO)n1, the T/C [10] is reported as 100 % of control, the T/C [7] is reported as 100 % of control and the T/C [11] is reported as 96 % of control. For the same compound, the T/C [8] was 95 % of control, the T/C [12] was 88 % of control and the T/C [9] was 90 % of control.

For NNC(=S)SCc1ccccc1, the T/C (dose: 15.0 mg/kg/injection, schedule: Q01DX009 (ip), vehicle: saline with Tween-80) was 106 % of control and the T/C (dose: 30.0 mg/kg/injection, schedule: Q01DX009 (ip), vehicle: saline with Tween-80) was 98 % of control.

With CCCCCCCCCCCSCCCCCCCCCCC the T/C [10] was 100 % of control, the T/C [11] was 100 % of control and the T/C [12] was 100 % of control.

For CC(=O)OCC(CO)(CO)CO, the T/C [2] was 100 % of control, the T/C [13] was 100 % of control and the T/C [14] was 100 % of control.

O=C1OC(=O)C2C1C(c1ccc([N+](=O)[O-])cc1)N1C3C(=O)OC(=O)C3C(c3ccc([N+](=O)[O-])cc3)N21 (stereo unspecified) was tested, and the T/C [15] was 97 % of control, the T/C [10] was 99 % of control and the T/C [11] was 92 % of control.

In the case of O=[N+]([O-])c1ccccc1SNc1ccc(NSc2ccccc2[N+](=O)[O-])cc1, the T/C (dose: 3.13 mg/kg/injection, schedule: Q01DX001 (ip), vehicle: saline with Tween-80) is reported as 104 % of control, the T/C (dose: 6.25 mg/kg/injection, schedule: Q01DX001 (ip), vehicle: saline with Tween-80) is reported as 109 % of control and the T/C (dose: 12.5 mg/kg/injection, schedule: Q01DX001 (ip), vehicle: saline with Tween-80) is reported as 95 % of control.

In the case of C#CCn1cnc2c(Cl)ncnc21, the T/C [3] is reported as 118 % of control, the T/C [4] is reported as 100 % of control and the T/C [2] is reported as 108 % of control. The T/C [13] was 104 % of control and the T/C [14] was 95 % of control.

In the case of CCC1(O)C2CCCC1CCC2 (stereo unspecified), the T/C [4] is reported as 100 % of control, the T/C (dose: 100.0 mg/kg/injection, schedule: Q04DX003 (ip), vehicle: Klucel (hydroxypropylcellulose) (HPC)) is reported as 100 % of control and the T/C [5] is reported as 109 % of control. For the same compound, the T/C (dose: 200.0 mg/kg/injection, schedule: Q04DX003 (ip), vehicle: Klucel (hydroxypropylcellulose) (HPC)) was 108 % of control, the T/C [6] was 113 % of control and the T/C (dose: 400.0 mg/kg/injection, schedule: Q04DX003 (ip), vehicle: Klucel (hydroxypropylcellulose) (HPC)) was 100 % of control.

In the case of CCSc1ncnc2[nH]ncc12, the T/C (dose: 6.25 mg/kg/injection, schedule: Q01DX009 (ip), vehicle: saline + alcohol) is reported as 101 % of control, the T/C (dose: 12.5 mg/kg/injection, schedule: Q01DX009 (ip), vehicle: saline + alcohol) is reported as 100 % of control and the T/C (dose: 25.0 mg/kg/injection, schedule: Q01DX009 (ip), vehicle: saline + alcohol) is reported as 100 % of control. For the same compound, the T/C (dose: 50.0 mg/kg/injection, schedule: Q01DX009 (ip), vehicle: saline + alcohol) was 98 % of control.

In the case of CS(=O)(=O)OCC(OS(C)(=O)=O)C(COS(C)(=O)=O)OS(C)(=O)=O (stereo unspecified), the T/C [15] is reported as 100 % of control, the T/C (dose: 50.0 mg/kg/injection, schedule: Q04DX003 (ip), vehicle: saline with Tween-80) is reported as 95 % of control and the T/C [10] is reported as 102 % of control. For the same compound, the T/C [7] was 91 % of control, the T/C [11] was 93 % of control and the T/C [8] was 95 % of control. The T/C [12] was 88 % of control and the T/C [9] was 91 % of control.
